Laboratory results: patent publication US12528814B2, “Bifunctional degraders of interleukin-1 receptor-associated kinases and therapeutic use thereof” (NURIX THERAPEUTICS, INC., priority 2020, dated 2026)
Where two headings read alike, the source gives them in different places.

Experiments:
IRAK4 [1] = biological target: T1, IRAK4 (Homo sapiens (Human), UniProt Q9NWZ3); test: IRAK4 Biochemical HTRF Kinase Assay; conditions: read-out: IRAK4 HTRF biochemical: IC50
Procedure, shortened: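 IC50 values derive from non-linear regression of sixteen concentrations in duplicate. Kinase reaction ran 90 min at ambient temperature after adding 5 μM STK-S1 substrate, 10 mM ATP and 10 mM MgCl2 (reaction-solution levels, pre-dilution to 10 μl); phospho-peptide detected by HTRF after 60 min.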
Target sequence in this assay (Q9NWZ3 whole entry, species assumed): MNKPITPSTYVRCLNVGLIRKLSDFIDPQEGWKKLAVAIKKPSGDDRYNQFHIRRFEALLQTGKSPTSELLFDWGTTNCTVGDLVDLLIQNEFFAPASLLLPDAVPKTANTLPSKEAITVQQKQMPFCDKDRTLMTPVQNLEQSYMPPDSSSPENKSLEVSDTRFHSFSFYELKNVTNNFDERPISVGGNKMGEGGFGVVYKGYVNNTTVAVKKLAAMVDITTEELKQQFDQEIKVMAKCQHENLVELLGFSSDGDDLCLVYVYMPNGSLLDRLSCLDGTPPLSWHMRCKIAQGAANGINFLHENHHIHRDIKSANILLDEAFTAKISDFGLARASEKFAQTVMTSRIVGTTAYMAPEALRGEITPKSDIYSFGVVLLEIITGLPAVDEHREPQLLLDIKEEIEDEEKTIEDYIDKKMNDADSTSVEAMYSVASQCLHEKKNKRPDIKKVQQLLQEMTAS

IRAK4 [2] = biological target: T1, IRAK4; test: IRAK4 Degradation HiBiT Assay; conditions: HiBiT-tagged Jurkat cells, 4 hrs; for Dmax: Jurkat; for DC50: read-out: Cellular IRAK4 HiBiT: DC50
Target sequence in this assay (Q9NWZ3 whole entry): as the sequence (Q9NWZ3 whole entry, species assumed) above

[3] = read-out: Cellular IRAK4 HiBiT: Dmax, Table 5, multiple runs
[4] = read-out: Cellular IRAK4 HiBiT: Dmax, Table 4

SMILES: CNc1cc(-c2ccc3cc(C#N)cnn23)ncc1-c1nnc(N2CC3(CCN(CC4CCN(c5ccc(C(=O)NC6CCC(=O)NC6=O)cc5)CC4)CC3)C2)s1 (centres unmarked) [Example 182, 4-(4-((2-(5-(6-(3-cyanopyrrolo[1,2-b]pyridazin-7-yl)-4-(methylamino)pyridin-3-yl)-1,3,4-thiadiazol-2-yl)-2,7-diazaspiro[3.5]nonan-7-yl)methyl)piperidin-1-yl)-N-(2,6-dioxopiperidin-3-yl)benzamide]
- IC50 (IRAK4 [1]; Table 5, multiple runs): 0.5 nM
- Dmax (IRAK4 [2]; [3]): 120%
- DC50 (IRAK4 [2]; Table 5, multiple runs): 159 nM

SMILES: CC(C)Nc1cc(-c2ccc3cc(C#N)cnn23)ncc1-c1nnc(N2CCC(NC(=O)C3CCN(c4ccc5c(c4)C(=O)N(C4CCC(=O)NC4=O)C5=O)CC3)CC2)s1 (centres unmarked) [Example 25, N-(1-(5-(6-(3-cyanopyrrolo[1,2-b]pyridazin-7-yl)-4-(isopropylamino)pyridin-3-yl)-1,3,4-thiadiazol-2-yl)piperidin-4-yl)-1-(2-(2,6-dioxopiperidin-3-yl)-1,3-dioxoisoindolin-5-yl)piperidine-4-carboxamide]
- IC50 (IRAK4 [1]; Table 4): 7.8 nM
- IC50 (IRAK4 [1]; Table 5, multiple runs): 7.8 nM
- Dmax (IRAK4 [2]; [4]): 69%
- Dmax (IRAK4 [2]; [3]): 77%
- DC50 (IRAK4 [2]; Table 4): 188 nM
- DC50 (IRAK4 [2]; Table 5, multiple runs): 160 nM

SMILES: CNc1cc(-c2ccc3cc(C#N)cnn23)ncc1-c1nnc([C@H]2CC[C@H](N(C)CC3CCN(c4ccc(C(=O)NC5CCC(=O)NC5=O)nc4)CC3)CC2)s1 (some centres unmarked) [Example 167, 5-(4-((((1r,4r)-4-(5-(6-(3-cyanopyrrolo[1,2-b]pyridazin-7-yl)-4-(methylamino)pyridin-3-yl)-1,3,4-thiadiazol-2-yl)cyclohexyl)(methyl)amino)methyl)piperidin-1-yl)-N-(2,6-dioxopiperidin-3-yl)picolinamide]
- IC50 (IRAK4 [1]; Table 5, multiple runs): 0.5 nM
- Dmax (IRAK4 [2]; [3]): 107%
- DC50 (IRAK4 [2]; Table 5, multiple runs): 20.1 nM

SMILES: CNc1cc(-c2ccc3cc(C#N)cnn23)ncc1-c1nnc([C@H]2CC[C@H](NC(=O)CCOCCNc3ccc4c(c3)C(=O)N(C3CCC(=O)NC3=O)C4=O)CC2)s1 (some centres unmarked) [Example 63, N-((1r,4r)-4-(5-(6-(3-cyanopyrrolo[1,2-b]pyridazin-7-yl)-4-(methylamino)pyridin-3-yl)-1,3,4-thiadiazol-2-yl)cyclohexyl)-3-(2-((2-(2,6-dioxopiperidin-3-yl)-1,3-dioxoisoindolin-5-yl)amino)ethoxy)propanamide]
- IC50 (IRAK4 [1]; Table 4): 0.7 nM
- IC50 (IRAK4 [1]; Table 5, multiple runs): 0.6 nM
- Dmax (IRAK4 [2]; [4]): 80%
- Dmax (IRAK4 [2]; [3]): 85%
- DC50 (IRAK4 [2]; Table 4): 8.1 nM
- DC50 (IRAK4 [2]; Table 5, multiple runs): 7.6 nM

SMILES: CNc1cc(-c2ccc3cc(C#N)cnn23)ncc1-c1nnc(N2CCN(C3CCN(C(=O)c4ccc5c(c4)C(=O)N(C4CCC(=O)NC4=O)C5)CC3)CC2)s1 (centres unmarked) [Example 99, 7-(5-(5-(4-(1-(2-(2,6-dioxopiperidin-3-yl)-3-oxoisoindoline-5-carbonyl)piperidin-4-yl)piperazin-1-yl)-1,3,4-thiadiazol-2-yl)-4-(methylamino)pyridin-2-yl)pyrrolo[1,2-b]pyridazine-3-carbonitrile]
- IC50 (IRAK4 [1]; Table 5, multiple runs): 0.3 nM
- Dmax (IRAK4 [2]; [3]): 116%
- DC50 (IRAK4 [2]; Table 5, multiple runs): 3.59 nM

SMILES: CC(C)Nc1cc(-c2ccc3cc(C#N)cnn23)ncc1-c1nnc(N2CCN(C[C@H]3CCN(c4ccc5c(c4)C(=O)N(C4CCC(=O)NC4=O)C5=O)C3)CC2)s1 (stereo partly drawn) [Example 19, 77-(5-(5-(4-(((3R)-1-(2-(2,6-dioxopiperidin-3-yl)-1,3-dioxoisoindolin-5-yl)pyrrolidin-3-yl)methyl)piperazin-1-yl)-1,3,4-thiadiazol-2-yl)-4-(isopropylamino)pyridin-2-yl)pyrrolo[1,2-b]pyridazine-3-carbonitrile]
- IC50 (IRAK4 [1]; Table 4): 2.2 nM
- IC50 (IRAK4 [1]; Table 5, multiple runs): 2.2 nM
- Dmax (IRAK4 [2]; [4]): 79%
- Dmax (IRAK4 [2]; [3]): 67%
- DC50 (IRAK4 [2]; Table 4): 90.1 nM
- DC50 (IRAK4 [2]; Table 5, multiple runs): 90.6 nM

SMILES: CC(C)Nc1cc(-c2ccc3cc(C#N)cnn23)ncc1-c1nnc(N2CCN(C3CCN(C(=O)CNc4cccc5c4C(=O)N(C4CCC(=O)NC4=O)C5=O)CC3)CC2)s1 (centres unmarked) [Example 74, 7-(5-(5-(4-(1-((2-(2,6-dioxopiperidin-3-yl)-1,3-dioxoisoindolin-4-yl)glycyl)piperidin-4-yl)piperazin-1-yl)-1,3,4-thiadiazol-2-yl)-4-(isopropylamino)pyridin-2-yl)pyrrolo[1,2-b]pyridazine-3-carbonitrile]
- IC50 (IRAK4 [1]; Table 5, multiple runs): 2.5 nM
- Dmax (IRAK4 [2]; [3]): 82%
- DC50 (IRAK4 [2]; Table 5, multiple runs): 28.9 nM

SMILES: CNc1cc(-c2ccc3cc(C#N)cnn23)ncc1-c1nnc([C@H]2CC[C@H](NC(=O)CCOCCNc3cccc4c3C(=O)N(C3CCC(=O)NC3=O)C4=O)CC2)s1 (some centres unmarked) [Example 71, N-((1r,4r)-4-(5-(6-(3-cyanopyrrolo[1,2-b]pyridazin-7-yl)-4-(methylamino)pyridin-3-yl)-1,3,4-thiadiazol-2-yl)cyclohexyl)-3-(2-((2-(2,6-dioxopiperidin-3-yl)-1,3-dioxoisoindolin-4-yl)amino)ethoxy)propanamide]
- IC50 (IRAK4 [1]; Table 4): 0.77 nM
- IC50 (IRAK4 [1]; Table 5, multiple runs): 0.8 nM
- Dmax (IRAK4 [2]; [4]): 93%
- Dmax (IRAK4 [2]; [3]): 52%
- DC50 (IRAK4 [2]; Table 4): 12.9 nM
- DC50 (IRAK4 [2]; Table 5, multiple runs): 5.87 nM

SMILES: CNc1cc(-c2ccc3cc(C#N)cnn23)ncc1-c1nnc(N2CCN(C3CCN(Cc4ccc(C(=O)NC5CCC(=O)NC5=O)cc4)CC3)CC2)s1 (centres unmarked) [Example 145, 4-((4-(4-(5-(6-(3-cyanopyrrolo[1,2-b]pyridazin-7-yl)-4-(methylamino)pyridin-3-yl)-1,3,4-thiadiazol-2-yl)piperazin-1-yl)piperidin-1-yl)methyl)-N-(2,6-dioxopiperidin-3-yl)benzamide]
- IC50 (IRAK4 [1]; Table 5, multiple runs): 1.8 nM
- Dmax (IRAK4 [2]; [3]): 49%
- DC50 (IRAK4 [2]; Table 5, multiple runs): 109 nM

SMILES: CNc1cc(-c2ccc3cc(C#N)cnn23)ncc1-c1nnc(N2CC3CCC(C2)N3C2CCN(C(=O)c3ccc4c(c3)C(=O)N(C3CCC(=O)NC3=O)C4)CC2)s1 (centres unmarked) [Example 162, 7-(5-(5-(8-(1-(2-(2,6-dioxopiperidin-3-yl)-3-oxoisoindoline-5-carbonyl)piperidin-4-yl)-3,8-diazabicyclo[3.2.1]octan-3-yl)-1,3,4-thiadiazol-2-yl)-4-(methylamino)pyridin-2-yl)pyrrolo[1,2-b]pyridazine-3-carbonitrile]
- IC50 (IRAK4 [1]; Table 5, multiple runs): 0.4 nM
- Dmax (IRAK4 [2]; [3]): 110%
- DC50 (IRAK4 [2]; Table 5, multiple runs): 10.5 nM

SMILES: CNc1cc(-c2ccc3cc(C#N)cnn23)ncc1-c1nnc(C2CCC(NC(=O)[C@H]3C[C@H]3C(=O)N[C@H](C(=O)N3C[C@H](O)C[C@H]3C(=O)N[C@@H](C)c3ccc(-c4scnc4C)cc3)C(C)(C)C)CC2)s1 (mixture of isomers) [Example 147, (1RS,2SR)—N1-((1r,4R)-4-(5-(6-(3-cyanopyrrolo[1,2-b]pyridazin-7-yl)-4-(methylamino)pyridin-3-yl)-1,3,4-thiadiazol-2-yl)cyclohexyl)-N2—((S)-1-((2S,4R)-4-hydroxy-2-(((S)-1-(4-(4-methylthiazol-5-yl)phenyl)ethyl)carbamoyl)pyrrolidin-1-yl)-3,3-dimethyl-1-oxobutan-2-yl)cyclopropane-1,2-dicarboxamide]
- IC50 (IRAK4 [1]; Table 5, multiple runs): 1.5 nM
- Dmax (IRAK4 [2]; [3]): 80%
- DC50 (IRAK4 [2]; Table 5, multiple runs): 508 nM

SMILES: CNc1cc(-c2ccc3cc(C#N)cnn23)ncc1-c1nnc(C23CCC(NC(=O)CN4CCN(c5ccc6c(c5)C(=O)N(C5CCC(=O)NC5=O)C6=O)CC4)(CC2)CC3)s1 (centres unmarked) [Example 105, N-(4-(5-(6-(3-cyanopyrrolo[1,2-b]pyridazin-7-yl)-4-(methylamino)pyridin-3-yl)-1,3,4-thiadiazol-2-yl)bicyclo[2.2.2]octan-1-yl)-2-(4-(2-(2,6-dioxopiperidin-3-yl)-1,3-dioxoisoindolin-5-yl)piperazin-1-yl)acetamide]
- IC50 (IRAK4 [1]; Table 5, multiple runs): 1.2 nM
- Dmax (IRAK4 [2]; [3]): 106%
- DC50 (IRAK4 [2]; Table 5, multiple runs): 39.8 nM

SMILES: Cc1ncsc1-c1ccc(CNC(=O)[C@@H]2C[C@@H](O)CN2C(=O)[C@@H](NC(=O)C2(F)CC2)C(C)(C)C)c(OCCCCCCCCCC(=O)N2CCN(c3nnc(-c4cnc(-c5ccc6cc(C#N)cnn56)cc4NC(C)C)s3)CC2)c1 [Example 44, (2S,4R)—N-(2-((10-(4-(5-(6-(3-cyanopyrrolo[1,2-b]pyridazin-7-yl)-4-(isopropylamino)pyridin-3-yl)-1,3,4-thiadiazol-2-yl)piperazin-1-yl)-10-oxodecyl)oxy)-4-(4-methylthiazol-5-yl)benzyl)-1-((S)-2-(1-fluorocyclopropane-1-carboxamido)-3,3-dimethylbutanoyl)-4-hydroxypyrrolidine-2-carboxamide]
- IC50 (IRAK4 [1]; Table 4): 702 nM
- IC50 (IRAK4 [1]; Table 5, multiple runs): 702 nM
- Dmax (IRAK4 [2]; [4]): 33%
- DC50 (IRAK4 [2]; Table 4): > 10000 nM
- DC50 (IRAK4 [2]; Table 5, multiple runs): > 9980 nM

SMILES: CNc1cc(-c2ccc3cc(C#N)cnn23)ncc1-c1nnc([C@H]2CC[C@H](NC(=O)CCCCCC(=O)N[C@H](C(=O)N3C[C@H](O)C[C@H]3C(=O)N[C@@H](C)c3ccc(-c4scnc4C)cc3)C(C)(C)C)CC2)s1 [Example 62, N1-((1r,4S)-4-(5-(6-(3-cyanopyrrolo[1,2-b]pyridazin-7-yl)-4-(methylamino)pyridin-3-yl)-1,3,4-thiadiazol-2-yl)cyclohexyl)-N7—((S)-1-((2S,4R)-4-hydroxy-2-(((S)-1-(4-(4-methylthiazol-5-yl)phenyl)ethyl)carbamoyl)pyrrolidin-1-yl)-3,3-dimethyl-1-oxobutan-2-yl)heptanediamide]
- IC50 (IRAK4 [1]; Table 4): 1.51 nM
- IC50 (IRAK4 [1]; Table 5, multiple runs): 1.5 nM
- Dmax (IRAK4 [2]; [4]): 103%
- Dmax (IRAK4 [2]; [3]): 111%
- DC50 (IRAK4 [2]; Table 4): 74.5 nM
- DC50 (IRAK4 [2]; Table 5, multiple runs): 58.2 nM

SMILES: CNc1cc(-c2ccc3cc(C#N)cnn23)ncc1-c1nnc(N2CC3CCC(C2)N3C2CCN(C(=O)Cc3ccc4c(c3)CN(C3CCC(=O)NC3=O)C4=O)CC2)s1 (centres unmarked) [Example 164, 7-(5-(5-(8-(1-(2-(2-(2,6-dioxopiperidin-3-yl)-1-oxoisoindolin-5-yl)acetyl)piperidin-4-yl)-3,8-diazabicyclo[3.2.1]octan-3-yl)-1,3,4-thiadiazol-2-yl)-4-(methylamino)pyridin-2-yl)pyrrolo[1,2-b]pyridazine-3-carbonitrile]
- IC50 (IRAK4 [1]; Table 5, multiple runs): 0.4 nM
- Dmax (IRAK4 [2]; [3]): 109%
- DC50 (IRAK4 [2]; Table 5, multiple runs): 5.64 nM
